# Measured values: publication PMC11760775 (bioRxiv, 2025)
# “Also recorded” adds a separate entry of the source.
# Columns and labels:
# mice [1] = assay: Tail flick acute heat nociception assay, reversal of morphine analgesia; type: in vivo, mouse; details: morphine 20mg/kg i.p., 50°C water bath
# mice [2] = assay: Conditioned place aversion in morphine tolerant mice; type: in vivo, mouse
Compound,Tail flick latency (mice [1]),CPA score (Test - Pretest) (mice [2]),Time spent in antagonist-paired (withdrawal precipitation) chamber (mice [2]; after conditioning versus pre-treatment)
CN1CC[C@]23c4c5ccc(O)c4O[C@H]2[C@@H](O)C=C[C@H]3[C@H]1C5 [morphine],significantly increased,–,–
C=CCN1CC[C@]23c4c5ccc(O)c4O[C@H]2C(=O)CC[C@@]3(O)[C@H]1C5 [naloxone],–,avoided the treatment compartment to a greater extent,marked decrease; also recorded: significantly less time
